{
  "source": "patent US20080171779A1",
  "about": "“USE OF 5-HT6 ANTAGONISTS TO PREVENT RELAPSE INTO ADDICTION” (Solvay Pharmaceuticals B.V., priority 2007, published 2008)",
  "key": {"[1]": {"test_system": "cue-induced relapse of alcohol seeking in the rat", "assay": "Stimulus (cue) induced reinstatement of extinguished self-administration of alcohol", "assay_type": "in vivo", "details": "for Nose-pokes after an alcohol induced cue, former alcoholics / Nose-pokes after an alcohol induced cue, total abstainers: 45 min test, mean ± spread; for amount of active nose-pokes versus placebo, cue induced alcohol seeking: one-way ANOVA, Fisher's LSD; for inactive nose-pokes versus placebo, cue induced alcohol seeking: all tested dosages", "experimental": "After learning to consume alcohol 12% (v/v) in a two-bottle paradigm, rats were trained to self-administer alcohol in the operant cage. When response-rates were stable, animals were withdrawn from alcohol for three weeks. Subsequently, the effect of 5-HT6 antagonists on relapse was tested by re-exposing the animals to alcohol-related stimuli.\nAnimals: 64 male Wistar rats, weighing 280-300 g at arrival (Harlan, the Netherlands) were used for testing compound 33. The animals were housed individually in a temperature—(T=22±2° C.) and humidity (rel %=60±5%) controlled room on a reversed 12 h light-dark cycle (lights off at 7:00 AM) with water available ad libitum. The animals were on a diet of 18 gr chow per animal per day. The experiment started after one week of acclimatization and lasted 12-14 weeks.\nDrug Self-administration: All training and testing was conducted in 16 operant chambers (30.5×24.1×29.2 cm) surrounded by sound attenuating ventilated cubicles (Med Associates, Georgia, Vt.). The chambers were fitted with a grid floor, a red dim house light and opposite the house light an intelligence panel. In the intelligence panel there were two nose-poke holes (Ø2.5 cm) located 5.5 cm above the grid floor and 16 cm separated from each other. A red dim stimulus light was located 12 cm above both nose-poke holes. Between the two nose-poke holes, a receptacle was located, in which the alcohol was delivered. High above the receptacle was a sonalert tone module. […] The alcohol drop was delivered by an infusion pump (PHM-100, MedAssociates, Georgia, Vt.) in 4.2 seconds During alcohol delivery, the active nose-poke hole was illuminated and a tone (±65 dB) was presented by the sonalert tone module for 2 seconds. The receptacle was illuminated for 5 seconds (discrete cues). The stimulus light switched off for 15 seconds (discriminative cue). In this 15 second time-out period, nose-poking was without consequences.\nAnimals were selected for further testing if they consumed alcohol doses (in the FR4-schedule) above the literature described pharmacological effective dose of 0.3 g/kg/hr (Linseman, 1987). Subsequently, when response behavior on the FR4-schedule was stable, there was a 3 week period of withdrawal in the homecage.\nTest for reinstatement: After the withdrawal period, each animal was tested twice for cue induced reinstatement with a week of further extinction training and wash-out in between. Animals were randomly distributed over the different experimental groups and never received the same treatment twice. On test days, the animals were placed in the operant cage for three or four hours (test day 1: 4 hr; test day 2: 3 hr) in absence of alcohol and alcohol related stimuli (discrete and discriminative cues) to extinguish response behavior. One hour before the end of this extinction session, the animal was removed from the operant cage and treated with a 5-HT6 antagonist. After drug administration the animals was placed back into the operant chamber, where the session continued. When the last hour had passed, the cue-induced relapse test session started (duration: 45 min). During this test, the experimental conditions were similar to the conditions during training on an FR4-schedule, with the exceptions that 1) at the beginning of the session, a 12% alcohol drop of 0.20 ml was available (delivered in the receptacle by the experimenter at the begin of the test session) and 2) after every 4th response, only cues were presented (no alcohol was delivered). Tests were operated and raw data was saved by the MED-PC IV program (Tatham, 1989).\nDrugs: Alcohol 12% (v/v) was made from alcohol 96% and diluted with tap water. Compound 33 was suspended in 5% Tween 80, 0.25% methylcellulose, 5% PEG 400 and H2O HPLC (65% of end volume). Ethanol was added and evaporated under N2-gas. The pH was adjusted to 5.8. In the range: 0, 3,10, and 30 mg/kg, compound 33 was administered intraperitoneally, 15 minutes before testing. The injection volume was 2 ml/kg. […]"}, "[2]": {"test_system": "cue-induced relapse of alcohol seeking in the rat", "assay": "Stimulus (cue) induced reinstatement of extinguished self-administration of alcohol", "assay_type": "in vivo", "details": "20 mg/kg"}, "[3]": {"test_system": "relapse behavior induced by conditioned drug cues (cocaine, heroin, nicotine, alcohol)", "details": "cues previously associated with cocaine, nicotine and alcohol delivery; cited from earlier work"}, "[4]": {"test_system": "cue-induced relapse of nicotine seeking in the rat", "assay": "Stimulus (cue) induced reinstatement of extinguished self-administration of nicotine", "assay_type": "in vivo", "details": "for Nose-pokes after a nicotine induced cue, total abstainers / Nose-pokes after a nicotine induced cue, former nicotine addicts: 30 min test, mean ± spread; for Nose-pokes after a nicotine induced cue, former nicotine addicts: column 'former nicotine addicts'", "source_text": "Using a very similar test protocol, 5-HT6 antagonists were also found to suppress cue-induced nicotine-seeking behavior. Thus 5-HT6 antagonists are believed useful for the preparation of medicaments for preventing relapse into addiction, in particular relapse into addiction to substances of abuse, including opiates, hallucinogens, inhalants, phencyclidine, amphetamines, cocaine, cannabis, nicotine, and alcohol, medicaments for preventing relapse to addiction to certain medicines, including sedatives, hypnotics and anxiolytics, and medicaments for preventing relapse to certain addictive behaviors, including gambling.\nAnimals: 32 male Wistar rats, weighing 280-300 g at arrival (Harlan, the Netherlands) were used for testing compound 33. The animals were housed individually in a temperature—(T=22±2° C.) and humidity (rel %=60±5%) controlled room on a reversed 12 h light-dark cycle (lights off at 7:00 AM) with water and food available ad libitum. The experiment started after one week of acclimatization and lasted 12-14 weeks.\nSurgery: after a week of acclimatization, intravenous silicon catheters are implanted in the right jugular vein under isoflurane anesthesia as described previously in De Vries, 1999.\nDrug Self-administration: All training and testing was conducted in 16 operant chambers (30.5×24.1×29.2 cm) surrounded by sound attenuating ventilated cubicles (Med Associates, Georgia, Vt.). The chambers were fitted with a grid floor, a red dim house light and opposite the house light an intelligence panel. In the intelligence panel there were two nose-poke holes (Ø2.5 cm) located 5.5 cm above the grid floor and 16 cm separated from each other. A red dim stimulus light was located 12 cm above both nose-poke holes. A tone module was located at the top of the center of the intelligence panel. During self-administration, animals were connected to an infusion pump (PHM-100, Med Associates, Georgia, V.T.) by a swivel to receive intravenous infusions of nicotine (40 μg/kg/inf). […] During this infusion, the active nose poke hole was illuminated (yellow light) and an audio stimulus was presented (tone of 2900 Hz and 65 dB for 2 seconds) (discrete cues). From the moment of nicotine delivery, the stimulus light switched off for 15 seconds (discriminative cue). In this time-out period, nose poking was without consequences.\nAcquisition, withdrawal and reinstatement: Behavioral training started 5-7 days after surgery. […] When response behavior was stable, animals were selected for further testing if they earned at least 5 rewards during the last three sessions of the FR3 schedule and the reward delivery was equal distributed over the session. Subsequently, responding for nicotine was extinguished. In this extinction phase (11 daily sessions of 60 min), the animals were placed in the operant chambers, but the nicotine and nicotine related stimuli (discrete and discriminative cues) were not available. Finally, the animals were tested for cue-induced reinstatement. During this test (duration of 30 minutes), the experimental conditions were similar to the conditions during training on an FR3-schedule, with the exception that no nicotine was available and the animals were not connected to the swivel.\nTests for cue-induced reinstatement were conducted twice; between these two test days, there was a week of further extinction training (wash-out period). During cue-induced reinstatement, effects of 5-HT6 antagonists were studied on output measurements.\nDrugs: Nicotine for self-administration: (−) nicotine hydrogen tartrate salt (Sigma, St Louis, Mo.) was dissolved in sterile saline. The pH of the solution was adjusted to +/−7.4 with diluted NaOH. Nicotine dose was expressed as free base weight. Compound 33 was suspended in 5% of end volume Tween 80. Ethanol was added and evaporated under N2-gas for 30 minutes. […] After the pH was adjusted to 5.5, 10% of end volume H2O HPLC was added. […]"}},
  "data": [
    {"smiles": "COc1ccc(NS(=O)(=O)c2sc3ccc(Cl)cc3c2C)cc1N1CCNCC1.Cl", "note": "[SB-271046, reference compound]", "values": [
      {"measurement": "Nose-pokes after an alcohol induced cue, former alcoholics", "setting": "[1]; 3 mg/kg", "result": "11.9 ± 5.4"},
      {"measurement": "Nose-pokes after an alcohol induced cue, total abstainers", "setting": "[1]; 3 mg/kg", "result": "1.1 ± 0.5"},
      {"measurement": "Nose-pokes after an alcohol induced cue, total abstainers", "setting": "[1]; 10 mg/kg", "result": "0.9 ± 0.5"},
      {"measurement": "amount of active nose-pokes versus placebo, cue induced alcohol seeking", "setting": "[1]; 10 mg/kg, p<0.05", "result": "significantly lower"},
      {"measurement": "inactive nose-pokes versus placebo, cue induced alcohol seeking", "setting": "[1]", "result": "no significant difference"},
      {"measurement": "relapse into addiction (alcohol)", "setting": "[2]", "result": "prevented from relapse into addiction"},
      {"measurement": "Nose-pokes after an alcohol induced cue, total abstainers", "setting": "[2]; 'total abstainers', 45 min test, mean ± spread", "result": "2.7 ± 1.9"},
      {"measurement": "amount of active nose-pokes versus placebo, cue induced alcohol seeking", "setting": "[2]; one-way ANOVA, Fisher's LSD, p<0.005", "result": "significantly lower"}
    ]},
    {"smiles": "Cc1c(C(=O)NN2CCCCC2)nn(-c2ccc(Cl)cc2Cl)c1-c1ccc(Cl)cc1", "note": "[SR141716A]", "values": [
      {"measurement": "relapse behavior induced by conditioned drug cues", "setting": "[3]", "result": "able to selectively reduce relapse behavior"}
    ]},
    {"smiles": "CCN/C(=N\\S(=O)(=O)c1cccc(Cl)c1)N1CC(C)(C)C=N1", "note": "[compound 33]", "values": [
      {"measurement": "Nose-pokes after an alcohol induced cue, former alcoholics", "setting": "[1]; 3 mg/kg", "result": "27.0 ± 6.1"},
      {"measurement": "Nose-pokes after an alcohol induced cue, total abstainers", "setting": "[1]; 3 mg/kg", "result": "1.1 ± 0.2"},
      {"measurement": "Nose-pokes after an alcohol induced cue, former alcoholics", "setting": "[1]; 10 mg/kg", "result": "23.5 ± 4.2"},
      {"measurement": "Nose-pokes after an alcohol induced cue, total abstainers", "setting": "[1]; 10 mg/kg", "result": "2.2 ± 1.5"},
      {"measurement": "relapse into addiction (alcohol)", "setting": "[1]; 30 mg/kg", "result": "prevented from relapse into addiction"},
      {"measurement": "Nose-pokes after an alcohol induced cue, total abstainers", "setting": "[1]; 30 mg/kg", "result": "0.8 ± 0.1"},
      {"measurement": "amount of active nose-pokes versus placebo, cue induced alcohol seeking", "setting": "[1]; 30 mg/kg, p<0.005", "result": "significantly lower"},
      {"measurement": "inactive nose-pokes versus placebo, cue induced alcohol seeking", "setting": "[1]", "result": "no significant difference"},
      {"measurement": "Nose-pokes after a nicotine induced cue, total abstainers", "setting": "[4]; 3 mg/kg intraperitoneally", "result": "4.58 ± 1.17"},
      {"measurement": "Nose-pokes after a nicotine induced cue, former nicotine addicts", "setting": "[4]; 3 mg/kg intraperitoneally", "result": "24.83 ± 3.20"},
      {"measurement": "Nose-pokes after a nicotine induced cue, total abstainers", "setting": "[4]; 10 mg/kg intraperitoneally", "result": "3.00 ± 1.04"},
      {"measurement": "Nose-pokes after a nicotine induced cue, former nicotine addicts", "setting": "[4]; 10 mg/kg intraperitoneally", "result": "28.50 ± 7.40"},
      {"measurement": "relapse into addiction (nicotine)", "setting": "[4]; 30 mg/kg", "result": "prevented from relapse into addiction"},
      {"measurement": "Nose-pokes after a nicotine induced cue, total abstainers", "setting": "[4]; 30 mg/kg intraperitoneally", "result": "1.75 ± 0.74"},
      {"measurement": "amount of active nose-pokes versus placebo, cue induced nicotine seeking", "setting": "[4]; 30 mg/kg, one-way ANOVA, Fisher's LSD, p<0.05", "result": "significantly lower"},
      {"measurement": "inactive nose-pokes versus placebo, cue induced nicotine seeking", "setting": "[4]; all tested dosages", "result": "no significant difference"}
    ]}
  ]
}
